# How the values were obtained:
# [1] = Hot-Rolling Dispersion in fresh water, field cuttings; conditions: 350 ml freshwater with 10.5 g shale inhibitor, hot rolled 16 hours at 150° F.
# Description: (§1) Synthesis of the amine salt was carried out as previously disclosed above. Fresh water was utilized as the base fluid in this example.
# (§2) A hot-rolling dispersion test was conducted using samples of Oxford shale, Foss Eikeland shale and actual shale drilling cutting recovered from a well in the field. […] The resulting mixture was hot rolled for 16 hours at 150° F. After rolling, the remaining shale cuttings were screened from the base fluid using a US 20 mesh screen and washed clean of base fluid with 10% potassium chloride aqueous solution. After drying the samples, they were weighed and the percentage of recovered shale was calculated.
# [2] = Viscosity of product from neutralization of Jeffamine D-230 with acids; format: physicochemical; conditions: for Viscosity (centipoises) at pH 9.5: Jeffamine D-230 neutralized with the acid to pH 9.5; for Viscosity (centipoises) at pH 10.5: Jeffamine D-230 neutralized with the acid to pH 10.5
# From the text: Synthesis of the salt: Synthesis of the salts from the free amine compounds is simple and should be well known and within the skill of a person of ordinary skill in the art. In one method the salt is formed in situ within a fully formulated mud by the addition of the acid directly to the mud. Alternatively the amine compound may be neutralized first with acid and then the salt added to the mud. When conducting the neutralization reaction between the amine compound and the acid compound either concentrated or diluted acid may be used. When concentrated acid is utilized, typically a slurry of the salt is formed. When the acid is diluted in water, an aqueous solution containing the amine salt is formed.
# [3] = Hot-Rolling Dispersion in fresh water, Oxford shale; conditions: 350 ml freshwater with 10.5 g shale inhibitor, hot rolled 16 hours at 150° F.
# Description: as §1, §2
# [4] = Hot-Rolling Dispersion in fresh water, Foss Eikeland shale; conditions: 350 ml freshwater with 10.5 g shale inhibitor, hot rolled 16 hours at 150° F.
# Description: as §1, §2
# [5] = Bentonite inhibition by daily addition of bentonite (Example 7); conditions: for 300 rpm Rheologies / 600 rpm Rheologies / 3 rpm Rheologies / 10 Min Gels / Plastic Viscosity / Yield Point: 10 ppb inhibitor; for 300 rpm Rheologies / 600 rpm Rheologies: Heat Aged (150° F.); for 3 rpm Rheologies / 10 Min Gels / Plastic Viscosity / Yield Point: Heat Aged (150°)
# Description: This test procedure uses pint jars that are filled with one barrel equivalent of tap water and 10 ppb of a shale inhibitor. Tap water was used as a control sample. All samples were adjusted to at least a pH of 9 and treated with a 10 ppb portion of M-I GEL (bentonite) at a medium shear rate. After stirring for 30 minutes, the rheologies were measured and then the samples were heat aged overnight at 150° F. After the samples were cooled their rheologies and pHs were recorded. All samples were then adjusted to at least a pH 9 before treating them again with bentonite as previously described. This procedure was carried out for each sample until all were too thick to measure.
# [6] = Bentonite Hydration Study, 50 ppb bentonite (Example 6)
# Description: In this procedure a pint jar was filled with one barrel equivalent of tap water and test sample, adjusted the pH to at least 9 and treated with a 50 ppb portion M-I GEL (bentonite) at a medium shear rate. After stirring for 30 minutes, the rheologies were measured and then the samples were heat aged overnight at 150° F. After the samples were cooled their rheologies and pHs were recorded. The following data is representative of how the rheologies are affected by the addition of the 50 ppb of bentonite in tap water treated with the experimental inhibitors.
molecule,measurement,setting,value
O=[N+]([O-])O [Nitric acid],% recovered,[1],45.7%
same,Viscosity (centipoises) at pH 9.5,[2],610 cps
same,Viscosity (centipoises) at pH 10.5,[2],120 cps
same,% recovered,[3],87.6%
same,% recovered,[4],69.1%
O=P(O)(O)O [Phosphoric acid],% recovered,[1],42.6%
same,Viscosity (centipoises) at pH 9.5,[2],slurry
same,Viscosity (centipoises) at pH 10.5,[2],slurry
same,% recovered,[3],87.8%
same,% recovered,[4],69.1%
CC(=O)O [Acetic acid],% recovered,[1],47.6%
same,Viscosity (centipoises) at pH 9.5,[2],1425 cps
same,Viscosity (centipoises) at pH 10.5,[2],33 cps
same,% recovered,[3],88.0%
same,% recovered,[4],72.4%
Citric acid,Viscosity (centipoises) at pH 9.5,[2],2000 cps
same,Viscosity (centipoises) at pH 10.5,[2],180 cps
same,% recovered,[3],87.0%
same,% recovered,[4],78.0%
COCCOC(C)COC(C)COC(C)COC(C)COC(C)COC(C)COC(C)COC(C)COCC(C)N (stereo not shown) [Jeffamine M-600],300 rpm Rheologies,[5]; Bentonite 30 lb/bbl,9
same,600 rpm Rheologies,[5]; Bentonite 30 lb/bbl,18
same,3 rpm Rheologies,[5]; Bentonite 30 lb/bbl,0
same,10 Min Gels,[5]; Bentonite 30 lb/bbl,0 lbs/100 ft^2
same,Plastic Viscosity,[5]; Bentonite 30 lb/bbl,9 CPS
same,Yield Point,[5]; Bentonite 30 lb/bbl,1 lbs/100 ft^2
same,300 rpm Rheologies,[5]; Bentonite 40 lb/bbl,18
same,600 rpm Rheologies,[5]; Bentonite 40 lb/bbl,35
same,3 rpm Rheologies,[5]; Bentonite 40 lb/bbl,0
same,10 Min Gels,[5]; Bentonite 40 lb/bbl,0 lbs/100 ft^2
same,Plastic Viscosity,[5]; Bentonite 40 lb/bbl,16 CPS
same,Yield Point,[5]; Bentonite 40 lb/bbl,1 lbs/100 ft^2
same,300 rpm Rheologies,[5]; Bentonite 50 lb/bbl,41
same,600 rpm Rheologies,[5]; Bentonite 50 lb/bbl,74
same,3 rpm Rheologies,[5]; Bentonite 50 lb/bbl,0
same,10 Min Gels,[5]; Bentonite 50 lb/bbl,0 lbs/100 ft^2
same,Plastic Viscosity,[5]; Bentonite 50 lb/bbl,33 CPS
same,Yield Point,[5]; Bentonite 50 lb/bbl,8 lbs/100 ft^2
same,300 rpm Rheologies,[5]; Bentonite 60 lb/bbl,71
same,600 rpm Rheologies,[5]; Bentonite 60 lb/bbl,146
same,3 rpm Rheologies,[5]; Bentonite 60 lb/bbl,0
same,10 Min Gels,[5]; Bentonite 60 lb/bbl,0 lbs/100 ft^2
same,Plastic Viscosity,[5]; Bentonite 60 lb/bbl,75 CPS
same,Yield Point,[5]; Bentonite 60 lb/bbl,4 lbs/100 ft^2
same,300 rpm Rheologies,[5]; Bentonite 70 lb/bbl,121
same,600 rpm Rheologies,[5]; Bentonite 70 lb/bbl,259
same,3 rpm Rheologies,[5]; Bentonite 70 lb/bbl,0
same,10 Min Gels,[5]; Bentonite 70 lb/bbl,3 lbs/100 ft^2
same,Plastic Viscosity,[5]; Bentonite 70 lb/bbl,138 CPS
same,Yield Point,[5]; Bentonite 70 lb/bbl,17 lbs/100 ft^2
same,"shale hydration inhibition, judgement",[5]; daily addition of bentonite,performs as a shale hydration inhibitor
same,"shale hydration inhibition, judgement",[6],performed well as shale hydration inhibitors
same,Gels 10 sec.,[6]; Heat Aged Rheology (150° F.),1 lbs/100 ft^2
same,Gels 10 min.,[6]; Heat Aged Rheology (150° F.),1 lbs/100 ft^2
same,PV,[6]; Heat Aged Rheology (150° F.),16 CPS
same,Rheology 3 RPM,[6]; Heat Aged Rheology (150° F.),1
same,Rheology 6 RPM,[6]; Heat Aged Rheology (150° F.),1
same,Rheology 100 RPM,[6]; Heat Aged Rheology (150° F.),10
same,Rheology 200 RPM,[6]; Heat Aged Rheology (150° F.),17
same,Rheology 300 RPM,[6]; Heat Aged Rheology (150° F.),24
same,Rheology 600 RPM,[6]; Heat Aged Rheology (150° F.),40
same,YP,[6]; Heat Aged Rheology (150° F.),8 lbs/100 ft^2
same,pH,[6]; Heat Aged Rheology (150° F.),11.1
same,Gels 10 sec.,[6]; Initial Rheology,11 lbs/100 ft^2
same,Gels 10 min.,[6]; Initial Rheology,25 lbs/100 ft^2
same,PV,[6]; Initial Rheology,19 CPS
same,Rheology 3 RPM,[6]; Initial Rheology,4
same,Rheology 6 RPM,[6]; Initial Rheology,5
same,Rheology 100 RPM,[6]; Initial Rheology,17
same,Rheology 200 RPM,[6]; Initial Rheology,25
same,Rheology 300 RPM,[6]; Initial Rheology,33
same,Rheology 600 RPM,[6]; Initial Rheology,52
same,YP,[6]; Initial Rheology,14 lbs/100 ft^2
same,pH,[6]; Initial Rheology,11.1

# From patent US6857485B2, “Shale hydration inhibition agent and method of use” (M-I LLC, priority 2000, dated 2005)
